Assay results reported in article PMC12006171, “Marsupial cathelicidins: characterization, antimicrobial activity and evolution in this unique mammalian lineage” (Frontiers in Immunology, 2025).
Converted amounts (≈) assume the structure as drawn. Read-outs that look alike come from different tables or passages of the source. Where a SMILES comes first, the peptide text is derived from it.

Experiments:
Assay type in all cases: cell-based
[1] = tested on: Candida albicans Clinical isolate - human; experiment: microbe, parasite or virus in culture
How it was run: (§1)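 Endpoint is visible-growth inhibition (MIC) after 35°C, 20–24 h incubation. Yeast medium was RPMI-1640 MOPS; bacterial medium was Mueller Hinton broth, with or without divalent cations and lysed horse blood. Final peptide range 64-0.125μg/mL.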

[2] = tested on: Candida parapsilosis ATCC 22019; experiment: microbe, parasite or virus in culture; conditions: for MIC: Lodderomyces parapsilosis, ATCC22019
How it was run: as §1

Candida krusei ATCC 6258 = experiment: microbe, parasite or virus in culture
How it was run: as §1

[3] = tested on: Escherichia coli ATCC 25922; experiment: microbe, parasite or virus in culture; conditions: ATCC 25922
How it was run: (§2)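 Each isolate was exposed to twofold peptide dilutions (final 64-0.125μg/mL) in Mueller Hinton broth, optionally supplemented with calcium and magnesium or 10% lysed horse blood. The MIC was taken as the lowest concentration lacking visible growth after 20–24 hours at 35°C.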

[4] = tested on: Pseudomonas aeruginosa clinical isolate - animal; experiment: microbe, parasite or virus in culture; conditions: clinical isolate - animal; for MIC: read-out: MIC P. aeruginosa
How it was run: as §2

[5] = tested on: Staphylococcus aureus ATCC 29213; experiment: microbe, parasite or virus in culture; conditions: ATCC 29213
How it was run: as §2

[6] = tested on: Escherichia coli clinical isolate - animal; experiment: microbe, parasite or virus in culture; conditions: clinical isolate - animal
How it was run: as §2

[7] = tested on: Staphylococcus aureus clinical isolate - animal; experiment: microbe, parasite or virus in culture; conditions: clinical isolate - animal
How it was run: as §2

[8] = tested on: Pseudomonas aeruginosa ATCC 27853; experiment: microbe, parasite or virus in culture; conditions: ATCC 27853; read-out: MIC P. aeruginosa ATCC
How it was run: as §2

[9] = tested on: Staphylococcus aureus clinical isolate – animal, penicillin-resistant (PRSA); conditions: clinical isolate – animal, penicillin-resistant (PRSA)
Experimental: (§3) Antimicrobial testing of 78 cathelicidin MPs was performed in two phases as outlined in Figure 1 . In phase I, 40 peptides (27 extant and 13 ancestral) were selected for testing based on rank (outlined above) and similarity to published marsupial cathelicidins with known antimicrobial activity ([33], [41]–[43]). These peptides were tested against nine bacteria (Staphylococcus aureus ATCC 29213 and clinical isolate, Escherichia coli ATCC 25922 and clinical isolate, Pseudomonas aeruginosa ATCC 27853 and clinical isolate, Streptococcus agalactiae ATCC 12386 and clinical isolate, Streptococcus pneumoniae ATCC 49619) and three fungi (Candida krusei ATCC 6258, Candida parapsilosis ATCC 22019, and Candida albicans clinical isolate). Details regarding these strains are available in Supplementary Table 4 . The antimicrobial activity of cathelicidins was determined as the minimum inhibitory concentration (MIC), which was the lowest concentration of cathelicidin that prevented visible bacterial or fungal growth, relative to the negative control. […] Minimum bactericidal concentration (MBC) and/or minimum fungicidal concentration (MFC) was conducted to determine microbicidal versus static action. Activity against S. aureus ATCC, E. coli ATCC, and Pseudomonas aeruginosa ATCC 27853 was examined in the presence of divalent cations to determine the impact of inhibitors.
(§4) Antimicrobial activity was determined using a broth microdilution susceptibility assay in 96 well polypropylene plates according to Clinical Laboratory Standards Institute guidelines M07-A and M26A as described previously ([33], [42], [43]). The bacterial and fungal isolates from humans and animals used in this study are outlined in Supplementary Table 4 . Only yeasts were included in the panel of fungi as they have been used in the susceptibility testing of eutherian ([3], [81]–[83]) and other marsupial cathelicidins previously ([33], [42], [43]). Cathelicidin mature peptides were solubilized in DMSO and serially diluted in duplicate from 128-0.25μg/mL in a final volume of 100µL. For bacteria, cathelicidins were diluted in Mueller Hinton Broth (MHB) with or without 10% lysed horse blood, and with (MH II B) or without (MHB) calcium and magnesium cations. For fungi, cathelicidins were diluted in Roswell Park Memorial Institute medium (RPMI)-1640 MOPS. Ampicillin or tetracycline were included as a positive control for Gram-positive and -negative bacteria respectively, while amphotericin B was used for fungi. A media-only negative control and growth control (no cathelicidin) were also included on each plate. Bacteria were sub-cultured on Muller Hinton agar (MHA) or sheep blood agar (BA), and fungi on Sabouraud dextrose agar (SAB), 20–24 hours prior to the test. Colonies were suspended in saline, the concentration adjusted to a 0.5 McFarland standard, and then diluted in media to a concentration of 1.0 x 10^6 cells/mL. Then, 100μL was added to each well of the cathelicidin dilution plate, giving a final inoculum density of 5 x 10^5 CFU/mL and cathelicidin concentration of 64-0.125μg/mL. Colony counts were performed on MHA/BA/SAB to confirm inoculum density. All plates were incubated at 35°C for 20–24 hours, depending on the strain.
(§5) Colonies were counted and compared to the colony count of the starting inoculum.

[10] = tested on: Staphylococcus aureus clinical isolate – animal, methicillin-resistant (MRSA); conditions: clinical isolate – animal, methicillin-resistant
Experimental: as §3, §4, §5

[11] = tested on: Streptococcus agalactiae ATCC 12386; experiment: microbe, parasite or virus in culture; conditions: ATCC 12386; read-out: MIC S. agalactiae ATCC
How it was run: as §1

[12] = tested on: Streptococcus agalactiae Clinical isolate - animal; experiment: microbe, parasite or virus in culture; conditions: clinical isolate - animal; read-out: MIC S. agalactiae
How it was run: as §1

[13] = tested on: Streptococcus pneumoniae ATCC 49619; experiment: microbe, parasite or virus in culture; conditions: ATCC 49619; read-out: MIC S. pneumoniae ATCC
How it was run: as §1

[14] = ATCC 6258, read-out: MIC C. krusei ATCC

Row | SMILES | MBC E. coli ATCC [3] | MIC [4] | MBC S. aureus ATCC [5] | MIC S. aureus ATCC [5] | MIC in the presence of cations S. aureus ATCC [5] | MBC E. coli [6] | MIC [6] | MIC in the presence of cations E. coli [6] | MBC S. aureus [7] | MIC S. aureus [7] | MIC in the presence of cations S. aureus [7] | MIC [8] | MBC PRSA [9] | MIC PRSA [9] | MBC MRSA [10] | MIC MRSA [10] | MIC [11] | MIC [12] | MFC C. parapsilosis ATCC ([2]; ATCC 22019) | MIC (Candida krusei ATCC 6258; [14]) | further results
1 | C[C@@H]1[C@H](O)[C@@H](C)/C=C/C=C/C=C/C=C/C=C/C=C/C=C/[C@H](O[C@@H]2O[C@H](C)[C@@H](O)[C@H](N)[C@@H]2O)C[C@@H]2O[C@](O)(C[C@@H](O)C[C@@H](O)[C@H](O)CC[C@@H](O)C[C@@H](O)CC(=O)O[C@H]1C)C[C@H](O)[C@H]2C(=O)O [Amphotericin B, reference compound] | – | – | – | – | – | – | – | – | – | – | – | – | – | – | – | – | – | – | – | – | MIC ([1]; Candida albicans, clinical isolate, RPMI-1640 MOPS, 5 x 10^5 CFU/mL, 35°C 20–24 hours, duplicate): 0.5 µg/mL; MIC ([1]; Candida albicans, clinical isolate, µM version of Table 4, read-out: MIC C. albicans): 0.5 µM; MIC ([2]; RPMI-1640 MOPS, 5 x 10^5 CFU/mL, 35°C 20–24 hours, duplicate): 0.5 µg/mL; MIC ([2]; µM version of Table 4, read-out: MIC C. parapsilosis ATCC): 0.5 µM; MIC (Candida krusei ATCC 6258; Pichia kudriavzevii, ATCC6258, RPMI-1640 MOPS, 5 x 10^5 CFU/mL, 35°C 20–24 hours, duplicate): 1 µg/mL; MIC (Candida krusei ATCC 6258; Pichia kudriavzevii, ATCC6258, µM version of Table 4, read-out: MIC C. krusei ATCC): 1 µM
2 | CC[C@H](C)[C@H](NC(=O)[C@H](CCCNC(=N)N)NC(=O)[C@@H](N)CCCCN)C(=O)NCC(=O)N[C@@H](CC(C)C)C(=O)NCC(=O)NCC(=O)N[C@@H](CC(C)C)C(=O)N[C@H](C(=O)N[C@@H](CCCNC(=N)N)C(=O)N[C@@H](CCCNC(=N)N)C(=O)N[C@H](C(=O)N[C@@H](CC(C)C)C(=O)N[C@@H](CC(=O)O)C(=O)N[C@@H](CCCNC(=N)N)C(=O)N[C@H](C(=O)N[C@@H](CCCNC(=N)N)C(=O)N[C@@H](CCCNC(=N)N)C(=O)N[C@@H](CCCNC(=N)N)C(=O)NCC(=O)O)[C@@H](C)CC)[C@@H](C)CC)C(C)C [AnstCath4] (H-KRIGLGGLVRRILDRIRRRG-OH) | 27.1 (27.1)^27.1 µM | >27.1 µM | 13.5 (13.5)^13.5 µM | 13.5 (13.5)^13.5 µM | 13.5 (13.5)^13.5 µM | 27.1 µM (≈ 64 µg/mL) | 13.5 µM (≈ 31.9 µg/mL) | 27.1 µM | 13.5 (13.5)^13.5 µM | 13.5 (13.5)^13.5 µM | 13.5 (13.5)^13.5 µM | >27.1 µM | 6.7 µM (≈ 15.8 µg/mL) | 6.7 µM (≈ 15.8 µg/mL) | 27.1 µM (≈ 64 µg/mL) | 13.5 µM (≈ 31.9 µg/mL) | >27.1 µM | >27.1 µM | 64 (>64) µg/mL | 8.9 µM | MIC E. coli ATCC [3]: 27.1 (27.1)^27.1 µM; MIC [13]: >27.1 µM
3 | CC[C@H](C)[C@H](NC(=O)[C@H](CCCNC(=N)N)NC(=O)[C@@H](N)CCCCN)C(=O)NCC(=O)N[C@@H](Cc1ccccc1)C(=O)NCC(=O)N[C@@H](CC(C)C)C(=O)N[C@@H](Cc1ccccc1)C(=O)N[C@@H](Cc1c[nH]c2ccccc12)C(=O)N[C@@H](CC(=O)O)C(=O)NCC(=O)N[C@@H](CC(C)C)C(=O)N[C@@H](CCCNC(=N)N)C(=O)N[C@@H](CCCCN)C(=O)N[C@@H](CC(C)C)C(=O)NCC(=O)N[C@@H](CC(N)=O)C(=O)N[C@@H](CCCNC(=N)N)C(=O)N[C@H](C(=O)N[C@@H](CCCCN)C(=O)N[C@@H](CC(N)=O)C(=O)N[C@@H](CCCNC(=N)N)C(=O)N[C@H](C(=O)N[C@@H](CCCNC(=N)N)C(=O)N[C@@H](CC(=O)O)C(=O)N[C@@H](Cc1ccccc1)C(=O)N[C@@H](Cc1ccccc1)C(=O)N[C@@H](CO)C(=O)N[C@@H](CCCCN)C(=O)N[C@@H](Cc1ccccc1)C(=O)N[C@@H](CC(C)C)C(=O)NCC(=O)O)[C@@H](C)CC)[C@@H](C)CC [MAP9] (H-KRIGFGLFWDGLRKLGNRIKNRIRDFFSKFLG-OH) | – | – | – | – | – | – | – | – | – | – | – | – | – | – | – | – | – | – | > 16.5 µM | 8.2 µM | MIC ([1]; Clinical isolate - human, read-out: MIC C. albicans): >16.5 µM; MIC C. parapsilosis ATCC ([2]; ATCC 22019): 16.5 µM (≈ 63.6 µg/mL); MFC C. krusei ATCC (Candida krusei ATCC 6258; ATCC 6258): 16.5 µM (≈ 63.6 µg/mL)
4 | CC[C@H](C)[C@H](NC(=O)[C@H](CCCNC(=N)N)NC(=O)[C@@H](N)CCCCN)C(=O)NCC(=O)N[C@@H](CC(C)C)C(=O)NCC(=O)NCC(=O)N[C@@H](CC(C)C)C(=O)N[C@H](C(=O)N[C@@H](CCCNC(=N)N)C(=O)N[C@@H](CCCNC(=N)N)C(=O)N[C@H](C(=O)N[C@@H](Cc1c[nH]c2ccccc12)C(=O)N[C@@H](CC(N)=O)C(=O)N[C@@H](CCCNC(=N)N)C(=O)N[C@H](C(=O)N[C@@H](CCCNC(=N)N)C(=O)N[C@@H](CCCNC(=N)N)C(=O)N[C@@H](CCCNC(=N)N)C(=O)NCC(=O)O)[C@@H](C)CC)[C@@H](C)CC)C(C)C [SmcrCath3] (H-KRIGLGGLVRRIWNRIRRRG-OH) | 6.5 µM (≈ 15.8 µg/mL) | 26.3 µM (≈ 64 µg/mL) | 6.5 (6.5)^6.5 µM | 6.5 (6.5)^6.5 µM | 6.5 (6.5)^6.5 µM | 6.5 µM (≈ 15.8 µg/mL) | 3.2 µM (≈ 7.79 µg/mL) | 6.5 µM | 6.5 (6.5)^6.5 µM | 6.5 (6.5)^6.5 µM | 6.5 (6.5)^6.5 µM | >26.3 µM | 6.5 µM (≈ 15.8 µg/mL) | 3.2 µM (≈ 7.79 µg/mL) | 6.5 µM (≈ 15.8 µg/mL) | 6.5 µM (≈ 15.8 µg/mL) | >26.3 µM | >26.3 µM | – | 6.5 µM | MIC ([3]; read-out: MIC E. coli ATCC): 6.5 µM (≈ 15.8 µg/mL); MIC ([3]; read-out: MIC in the presence of cations E. coli ATCC): 13.1 µM; MBC P. aeruginosa [4]: > 26.3 µM; MFC C. albicans ([1]; Clinical isolate - human): 26.3 µM (≈ 64 µg/mL); MIC [13]: >26.3 µM
